Laboratory results published in patent publication US20220280607A1, “Treatment of Heart Defects and Conditions in Pediatric Patients” (University of Pittsburgh - Of the Commonwealth System of …, priority 2019, published 2022).

Assays:
[1] = test system: heart muscle cells of neonatal mice; experiment: Neonatal mice given beta blocker by retro-orbital injection (Examples 2 and 3): total cardiomyocytes, heart-body weight ratio; type: in vivo, mouse; details: retro-orbital injection twice a day, 1 μg/μl, 10 μl per g body weight; for heart-body-weight ratio: FIG. 17B, 18B; for total number of heart muscle cells (cardiomyocytes): P4 and P8 groups, FIG. 17A, 18A
Experimental: (§1) Metoprolol was dissolved in PBS (1 μg/μl). The metoprolol was administered to neonatal mice using retro-orbital injection twice a day at the dose of 10 μl solution each 1 g body weight In the 4-day-old group (P4), the drug administration was performed at 9 am and 3 μm, respectively, from P1 and P3, then only injections at 9 am were performed at P4. The hearts were isolated at P4 in the afternoon. In the 8-day-old group (P8), the drug administration was performed at 9 am and 3 μm, respectively, from P1 and P7, then only injections at 9 am were performed at P8. The hearts were isolated at P8 in the afternoon.
as §1, with “Alprenolol” for “Metoprolol”, “alprenolol” for “metoprolol”, “pm,” for “μm,”

[2] = test system: cardiomyocytes of newborn mice; experiment: Mouse pharmacological treatment of newborn mice: binucleated cardiomyocytes, cardiomyocyte endowment, cell cycle activity, heart weight; type: in vivo; details: newborn mice; for increase in the proportion of binucleated cardiomyocytes: forskolin 1 μg/g, 1 i.p. injection per day, FIG. 12B
Experimental: […] An equal volume of phosphate buffered saline (PBS) was injected in the control groups.
Isolation of intact cardiomyocytes for quantification: We used a previously validated fixation digestion method to isolate intact cardiomyocytes from fresh or frozen myocardium for quantification (Mollova, M., et al. “Cardiomyocyte proliferation in human heart growth” Proceedings of the National Academy of Sciences January 2013, 110 (4) 1446-1451; DOI: 10.1073/pnas.1214608110). The myocardium was cut into 1 cubic millimeter (mm^3) sized tissue blocks followed by incubation with 3.7% formaldehyde at room temperature for 1.8 hours. After being washed with PBS 3 times to remove the formaldehyde, the fixed tissue blocks were digested in enzyme solution (Collagenase B, 3.6 mg/ml; Collagenase D, 4.8 mg/ml) at 37 degrees Celsius (° C.), with 10 revolutions per minute (rpm) overhead rotation. The digested cells were collected every 24 hours from the supernatant, and the undigested tissue was re-suspended with fresh enzyme solution until all of the tissue pieces were digested. All of the digested cells from the same heart were then combined and allowed to settle to the bottom of the tube. The cell pellet was collected for further study.
Counting of cardiomyocytes after fixation and digestion: All fractions from the digestion of a heart were combined in 2 milliliters (mL) PBS and cardiomyocytes were quantified using a hemocytometer.
Intact cardiomyocytes in suspension. To assess M-phase, intact cardiomyocytes were isolated by fixation-digestion. The solution containing the stained cells was then transferred to 8-well chambered cover glass (400 μl/well). After the cells were settled down to the bottom of the chambers, the number of mono/bi/multinucleated cardiomyocytes were counted with a fluorescence microscope, and the percentage of mono/bi/multinucleated cardiomyocytes was calculated. To quantify the proportion of H3P-positive cardiomyocytes, the concentration of stained cardiomyocytes in suspension (Ccardiomyocytes) was first measured using a hemocytometer. The cell suspension (400 μl) was then transferred to a well of a chamber slide, and the total number of H3P-positive cardiomyocytes (HH3P+) inside the well was counted with a TiE epifluorescence microscope. The proportion of the H3P-positive cardiomyocytes (PH3P+) was calculated using the following formula: […]
Heart sections: To determine S-phase, BrdU (40 μg/g body) was administered to P7 ICR mice and the hearts were resected at P8, fixed, and cryosectioned at 15 μm thickness. From each heart, four heart sections at a distance of 300 μm were selected and imaged by tile scanning with a Nikon A1R confocal microscope. The total number of BrdU-positive cardiomyocytes at the selected heart sections was counted. The total area of the selected heart sections was measured by Fiji software. The density of BrdU-positive cardiomyocytes (cells/mm^2) in the hearts was calculated using the following equation: […]
Intact cardiomyocytes in suspension. Cardiomyocytes were isolated from fresh or frozen (human or mouse) ventricle myocardium using the fixation-digestion method, followed by immunostaining as described above. The cells were then imaged and quantified with a Nikon A1R microscope for mono/bi/multi-nucleation.

[3] = test system: cardiomyocytes from infants with ToF/PS; experiment: ToF/PS myocardium tissue (organotypic) culture: binucleated BrdU-labeled cardiomyocytes; type: cell-based, human; details: organotypic cultures of heart pieces from infants with ToF/PS, 10 μM, BrdU, FIG. 14E
Experimental: ToF/PS myocardium tissue culture: Discarded myocardium samples were collected during ToF/PS surgery, cut into ˜1 mm^3 tissue blocks, and cultured in IMDM media containing 10% FBS, recombinant neuregulin 1 (rNRG1, 100 ng/ml), and BrdU (30 μM) for 6 days. Samples were treated with forskolin (10 μM), propranolol (10 μM), dobutamine (10 μM), or a combination of propranolol (10 μM) and dobutamine (10 μM).
Cultured ToF/PS myocardium. Cardiomyocytes were isolated from cultured myocardium with the fixation-digestion method. After denaturing the DNA with 2N HCl and neutralization with 2 Normal (N) sodium hydroxide (NaOH), immunofluorescence antibody labeling was performed in solution. The proportion of binucleated and BrdU-positive was quantified with a Nikon A1R microscope.

[4] = test system: human fetal cardiomyocytes; experiment: Cytokinesis failure in cultured human fetal cardiomyocytes (β-adrenergic receptor signaling pathway studies); type: cell-based; details: cultured human fetal cardiomyocytes, 10 μM, FIG. 14C
Experimental: Primary cardiomyocyte culture experiments: Neonatal (mouse or rat) cardiomyocytes or human fetal cardiomyocytes were plated in 4-well chamber slides pre-coated with fibronectin (10 μg/ml) at a density of 200,000 cells/well and cultured with DMEM/high glucose (for mouse and rat cardiomyocytes) or IMDM (for fetal human cardiomyocytes) containing 10% fetal bovine serum (FBS) and recombinant neuregulin 1 (rNRG1, 100 nanograms per milliliter (ng/ml)) overnight. All treatments and BrdU (30 micromolar (μM)) were added on the next day.
β-adrenergic receptor signaling pathway studies: Forskolin (10 μM), propranolol (10 μM), dobutamine (10 μM), or a combination of propranolol (10 μM) and dobutamine (10 μM) were added to the culture from day 1 to day 3. The cells were collected for examining gene expression or immunofluorescence microscopy at day 3.
Cardiomyocytes cultured on glass surfaces. […] The BrdU-positive nuclei, cell-cell boundaries (Pan-Cadherin antibody), and cardiomyocyte markers (α-actinin or troponin I antibody) were labeled by immunofluorescence. The stained cells were imaged under Nikon confocal microscope. The binucleated cardiomyocytes and all BrdU-positive cardiomyocytes were quantified using Fiji software.

**Q.** How did the heart-body-weight ratio [1] turn out when `COCCc1ccc(OCC(O)CNC(C)C)cc1` (centres unmarked) [Metoprolol, 1-[4-(2-methoxyethyl)phenoxy]-3-(propan-2-ylamino)propan-2-ol] was run?
**A.** did not alter

**Q.** What about the “total number of heart muscle cells (cardiomyocytes)” value [1] of the same compound?
**A.** did not alter

**Q.** Which heart-body-weight ratio [1] does the source give for `C=CCc1ccccc1OCC(O)CNC(C)C` (centres unmarked) [alprenolol, 1-(propan-2-ylamino)-3-(2-prop-2-enylphenoxy)propan-2-ol] here?
**A.** without altering

**Q.** And the “total number of heart muscle cells (cardiomyocytes)” value [1]?
**A.** increases

**Q.** What about the heart weight ([2]; 2 i.p. injections per day, FIG. 16A, 16B) of the same compound?
**A.** did not result in a change

**Q.** What about the “increase of cardiomyocyte endowment” value ([2]; at P8, 2 i.p. injections per day, counting fixation-digested hearts, FIG. 12D, 12H) of the same compound?
**A.** 24%

**Q.** What about the “decrease of the proportion/formation of binucleated cardiomyocytes” value ([2]; treatment from P1 to P8, 2 i.p. injections per day (propranolol 10 μg/g; alprenolol 10 μg/g, 40 μg/g), FIG. 12C, 12G) of the same compound?
**A.** 13%

**Q.** Which “proportion of binucleated cardiomyocytes” value [3] does the source give for `CC(CCc1ccc(O)cc1)NCCc1ccc(O)c(O)c1` (centres unmarked) [dobutamine] here?
**A.** maximal increase

**Q.** And the “binucleated cardiomyocytes as % of the Fsk-induced increase” value [4]?
**A.** 95.2%

**Q.** How did the “increase in the proportion of binucleated cardiomyocytes” value ([2]; after 4 days) turn out when `C=C[C@@]1(C)CC(=O)[C@]2(O)[C@@]3(C)[C@@H](O)CCC(C)(C)[C@@H]3[C@H](O)[C@H](OC(C)=O)[C@@]2(C)O1` [forskolin] was run?
**A.** 37%

**Q.** And the “increase in the proportion of binucleated cardiomyocytes” value ([2]; after 8 days)?
**A.** 21%
